According to ChEMBL document CHEMBL5715954, “Silencing c-Myc translation as a therapeutic strategy through targeting PI3Kδ and CK1ε in hematological malignancies” (Blood, 2017):

Tests used:
Parameters in all cases: scale not given: the % may be the effect or the level left
[1] = target: Ephrin type-A receptor 4 (Homo sapiens) (UniProt P54764); test: Inhibition of human EPHA4 assessed as enzyme activity at 1 uM using poly[Glu:Tyr] (4:1) as substrate preincubated for 20 mins followed by [gamma-33P]-ATP addition and measured after 120 mins by radiometric Hot-SpotSM Kinase assay relative to control
[2] = target: Fibroblast growth factor receptor 3 (Homo sapiens) (UniProt P22607); test: Inhibition of human FGFR3 assessed as enzyme activity at 1 uM using poly[Glu:Tyr] (4:1) as substrate preincubated for 20 mins followed by [gamma-33P]-ATP addition and measured after 120 mins by radiometric Hot-SpotSM Kinase assay relative to control
[3] = target: T1, Mitogen-activated protein kinase kinase kinase kinase 2 (Homo sapiens) (UniProt Q12851); test: Inhibition of human GCK assessed as enzyme activity at 1 uM using myelin basic protein as substrate preincubated for 20 mins followed by [gamma-33P]-ATP addition and measured after 120 mins by radiometric Hot-SpotSM Kinase assay relative to control
T1 sequence (whole entry): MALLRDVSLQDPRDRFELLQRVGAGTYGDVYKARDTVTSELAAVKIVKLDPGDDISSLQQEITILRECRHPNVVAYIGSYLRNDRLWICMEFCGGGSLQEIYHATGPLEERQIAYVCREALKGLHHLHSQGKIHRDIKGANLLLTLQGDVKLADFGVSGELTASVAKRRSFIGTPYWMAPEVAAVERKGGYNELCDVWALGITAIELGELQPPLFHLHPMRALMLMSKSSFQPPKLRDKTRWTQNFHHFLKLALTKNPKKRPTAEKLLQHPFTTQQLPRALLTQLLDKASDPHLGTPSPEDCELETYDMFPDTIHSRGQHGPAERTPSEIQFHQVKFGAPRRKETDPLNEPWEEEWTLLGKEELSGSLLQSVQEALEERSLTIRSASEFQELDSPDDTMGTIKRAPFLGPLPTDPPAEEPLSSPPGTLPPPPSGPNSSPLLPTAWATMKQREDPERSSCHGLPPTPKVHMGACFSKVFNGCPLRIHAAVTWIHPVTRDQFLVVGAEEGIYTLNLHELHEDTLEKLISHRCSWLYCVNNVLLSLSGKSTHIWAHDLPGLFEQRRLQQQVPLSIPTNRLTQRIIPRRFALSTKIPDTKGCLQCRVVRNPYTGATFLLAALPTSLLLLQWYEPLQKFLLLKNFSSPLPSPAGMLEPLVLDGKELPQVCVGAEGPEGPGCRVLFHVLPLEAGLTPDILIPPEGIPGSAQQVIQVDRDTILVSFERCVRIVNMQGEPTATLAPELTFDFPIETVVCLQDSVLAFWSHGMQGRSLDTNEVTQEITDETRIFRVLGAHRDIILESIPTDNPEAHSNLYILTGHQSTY

[4] = target: Insulin receptor-related protein (Homo sapiens) (UniProt P14616); test: Inhibition of human IRR assessed as enzyme activity at 1 uM using myelin basic protein as substrate preincubated for 20 mins followed by [gamma-33P]-ATP addition and measured after 120 mins by radiometric Hot-SpotSM Kinase assay relative to control
[5] = target: Protein-tyrosine kinase 2-beta (Homo sapiens) (UniProt Q14289); test: Inhibition of human PYK2 assessed as enzyme activity at 1 uM using poly[Glu:Tyr] (4:1) as substrate preincubated for 20 mins followed by [gamma-33P]-ATP addition and measured after 120 mins by radiometric Hot-SpotSM Kinase assay relative to control
[6] = target: T2, Serine/threonine-protein kinase ULK3 (Homo sapiens) (UniProt Q6PHR2); test: Inhibition of human ULK3 assessed as enzyme activity at 1 uM using myelin basic protein as substrate preincubated for 20 mins followed by [gamma-33P]-ATP addition and measured after 120 mins by radiometric Hot-SpotSM Kinase assay relative to control
T2 sequence (whole entry): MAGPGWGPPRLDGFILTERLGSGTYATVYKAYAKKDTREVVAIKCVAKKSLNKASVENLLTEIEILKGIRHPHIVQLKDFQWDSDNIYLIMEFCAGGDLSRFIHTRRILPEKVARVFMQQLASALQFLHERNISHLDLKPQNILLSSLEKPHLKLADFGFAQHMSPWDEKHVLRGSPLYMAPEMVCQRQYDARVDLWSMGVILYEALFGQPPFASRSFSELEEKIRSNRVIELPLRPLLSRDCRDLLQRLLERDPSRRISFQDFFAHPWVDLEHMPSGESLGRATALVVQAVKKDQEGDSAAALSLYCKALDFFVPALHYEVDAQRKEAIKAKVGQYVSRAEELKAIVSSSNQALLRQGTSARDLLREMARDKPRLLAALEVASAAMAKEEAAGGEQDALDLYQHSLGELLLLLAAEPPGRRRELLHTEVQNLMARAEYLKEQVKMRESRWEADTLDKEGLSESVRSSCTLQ

Chain of Fibroblast growth factor receptor 3 (Homo sapiens) (P22607 23-806 limits assumed): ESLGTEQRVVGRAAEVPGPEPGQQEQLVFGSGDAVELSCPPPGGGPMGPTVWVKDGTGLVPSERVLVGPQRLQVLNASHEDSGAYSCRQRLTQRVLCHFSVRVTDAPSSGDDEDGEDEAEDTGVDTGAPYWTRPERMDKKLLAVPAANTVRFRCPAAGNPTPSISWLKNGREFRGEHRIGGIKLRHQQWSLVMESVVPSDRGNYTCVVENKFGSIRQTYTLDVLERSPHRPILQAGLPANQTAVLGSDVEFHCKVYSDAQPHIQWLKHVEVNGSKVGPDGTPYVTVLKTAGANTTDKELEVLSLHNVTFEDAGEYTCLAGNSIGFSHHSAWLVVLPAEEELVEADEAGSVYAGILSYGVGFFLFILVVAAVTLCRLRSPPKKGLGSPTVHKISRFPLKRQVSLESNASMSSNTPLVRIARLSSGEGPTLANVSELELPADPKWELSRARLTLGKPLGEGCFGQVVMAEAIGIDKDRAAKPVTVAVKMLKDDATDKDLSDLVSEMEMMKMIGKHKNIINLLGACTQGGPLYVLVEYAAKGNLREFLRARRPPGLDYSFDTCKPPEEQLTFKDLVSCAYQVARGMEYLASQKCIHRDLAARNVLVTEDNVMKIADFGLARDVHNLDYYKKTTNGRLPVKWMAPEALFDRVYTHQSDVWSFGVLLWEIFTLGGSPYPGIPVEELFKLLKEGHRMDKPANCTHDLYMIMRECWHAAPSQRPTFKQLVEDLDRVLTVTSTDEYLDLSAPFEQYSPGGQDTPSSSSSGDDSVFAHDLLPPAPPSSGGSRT
Chain of Ephrin type-A receptor 4 (Homo sapiens) (P54764 whole entry): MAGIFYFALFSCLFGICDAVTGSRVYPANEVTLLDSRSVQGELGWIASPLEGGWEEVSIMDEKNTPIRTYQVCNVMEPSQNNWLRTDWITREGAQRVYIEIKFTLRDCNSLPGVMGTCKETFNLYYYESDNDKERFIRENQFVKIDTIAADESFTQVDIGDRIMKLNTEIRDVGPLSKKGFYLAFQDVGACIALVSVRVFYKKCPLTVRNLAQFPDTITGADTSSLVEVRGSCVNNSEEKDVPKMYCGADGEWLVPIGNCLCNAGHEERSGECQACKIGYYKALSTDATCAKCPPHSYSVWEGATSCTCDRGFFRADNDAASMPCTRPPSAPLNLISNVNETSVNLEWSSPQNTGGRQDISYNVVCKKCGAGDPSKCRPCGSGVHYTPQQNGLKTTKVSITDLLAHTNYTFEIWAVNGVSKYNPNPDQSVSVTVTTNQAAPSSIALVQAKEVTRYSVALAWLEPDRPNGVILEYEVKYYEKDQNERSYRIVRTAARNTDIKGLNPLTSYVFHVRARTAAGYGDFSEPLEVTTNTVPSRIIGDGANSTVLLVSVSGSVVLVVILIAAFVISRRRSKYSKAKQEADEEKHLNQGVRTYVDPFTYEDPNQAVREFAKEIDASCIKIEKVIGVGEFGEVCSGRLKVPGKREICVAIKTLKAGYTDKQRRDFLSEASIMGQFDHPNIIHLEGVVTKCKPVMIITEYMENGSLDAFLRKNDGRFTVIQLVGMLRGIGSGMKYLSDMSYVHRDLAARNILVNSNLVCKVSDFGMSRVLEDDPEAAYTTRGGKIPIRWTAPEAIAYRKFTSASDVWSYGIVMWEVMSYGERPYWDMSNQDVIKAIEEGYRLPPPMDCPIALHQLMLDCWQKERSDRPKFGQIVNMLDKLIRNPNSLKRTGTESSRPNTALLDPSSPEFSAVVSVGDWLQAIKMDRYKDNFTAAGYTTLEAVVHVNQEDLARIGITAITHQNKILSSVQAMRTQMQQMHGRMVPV
Chain of Insulin receptor-related protein (Homo sapiens) (P14616 27-742 limits assumed): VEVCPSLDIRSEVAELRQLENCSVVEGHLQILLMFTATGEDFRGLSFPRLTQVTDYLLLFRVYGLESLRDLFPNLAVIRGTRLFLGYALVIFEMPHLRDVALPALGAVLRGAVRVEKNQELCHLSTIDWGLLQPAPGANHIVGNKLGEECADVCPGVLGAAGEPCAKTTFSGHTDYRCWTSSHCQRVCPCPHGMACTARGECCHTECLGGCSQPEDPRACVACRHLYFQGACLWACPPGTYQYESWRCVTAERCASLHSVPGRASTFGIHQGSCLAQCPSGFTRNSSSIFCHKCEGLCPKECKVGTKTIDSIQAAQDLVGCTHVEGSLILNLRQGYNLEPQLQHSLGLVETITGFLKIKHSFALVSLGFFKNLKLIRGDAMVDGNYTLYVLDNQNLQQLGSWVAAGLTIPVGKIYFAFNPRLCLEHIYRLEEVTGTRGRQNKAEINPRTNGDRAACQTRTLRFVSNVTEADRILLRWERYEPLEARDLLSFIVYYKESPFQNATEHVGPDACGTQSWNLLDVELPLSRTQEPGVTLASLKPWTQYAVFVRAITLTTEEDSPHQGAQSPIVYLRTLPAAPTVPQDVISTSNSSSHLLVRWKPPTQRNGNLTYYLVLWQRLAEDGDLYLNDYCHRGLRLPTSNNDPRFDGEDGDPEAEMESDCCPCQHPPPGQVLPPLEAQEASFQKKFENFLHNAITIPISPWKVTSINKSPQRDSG
Chain of Insulin receptor-related protein (Homo sapiens) (P14616 747-1297 limits assumed): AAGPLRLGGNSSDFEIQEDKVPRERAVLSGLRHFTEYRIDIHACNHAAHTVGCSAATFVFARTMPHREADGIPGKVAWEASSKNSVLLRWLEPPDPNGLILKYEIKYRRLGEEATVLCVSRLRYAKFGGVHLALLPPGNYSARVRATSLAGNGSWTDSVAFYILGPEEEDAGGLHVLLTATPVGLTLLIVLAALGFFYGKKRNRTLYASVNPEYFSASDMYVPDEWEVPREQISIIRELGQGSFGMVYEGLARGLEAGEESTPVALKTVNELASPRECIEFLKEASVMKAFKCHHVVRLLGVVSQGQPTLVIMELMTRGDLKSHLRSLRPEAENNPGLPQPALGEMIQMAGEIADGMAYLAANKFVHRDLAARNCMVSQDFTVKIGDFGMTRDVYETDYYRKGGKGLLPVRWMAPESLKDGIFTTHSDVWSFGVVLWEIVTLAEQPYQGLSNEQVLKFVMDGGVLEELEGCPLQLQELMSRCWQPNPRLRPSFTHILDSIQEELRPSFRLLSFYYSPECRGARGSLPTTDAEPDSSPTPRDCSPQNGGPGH
Chain of Protein-tyrosine kinase 2-beta (Homo sapiens) (Q14289 whole entry, looked up): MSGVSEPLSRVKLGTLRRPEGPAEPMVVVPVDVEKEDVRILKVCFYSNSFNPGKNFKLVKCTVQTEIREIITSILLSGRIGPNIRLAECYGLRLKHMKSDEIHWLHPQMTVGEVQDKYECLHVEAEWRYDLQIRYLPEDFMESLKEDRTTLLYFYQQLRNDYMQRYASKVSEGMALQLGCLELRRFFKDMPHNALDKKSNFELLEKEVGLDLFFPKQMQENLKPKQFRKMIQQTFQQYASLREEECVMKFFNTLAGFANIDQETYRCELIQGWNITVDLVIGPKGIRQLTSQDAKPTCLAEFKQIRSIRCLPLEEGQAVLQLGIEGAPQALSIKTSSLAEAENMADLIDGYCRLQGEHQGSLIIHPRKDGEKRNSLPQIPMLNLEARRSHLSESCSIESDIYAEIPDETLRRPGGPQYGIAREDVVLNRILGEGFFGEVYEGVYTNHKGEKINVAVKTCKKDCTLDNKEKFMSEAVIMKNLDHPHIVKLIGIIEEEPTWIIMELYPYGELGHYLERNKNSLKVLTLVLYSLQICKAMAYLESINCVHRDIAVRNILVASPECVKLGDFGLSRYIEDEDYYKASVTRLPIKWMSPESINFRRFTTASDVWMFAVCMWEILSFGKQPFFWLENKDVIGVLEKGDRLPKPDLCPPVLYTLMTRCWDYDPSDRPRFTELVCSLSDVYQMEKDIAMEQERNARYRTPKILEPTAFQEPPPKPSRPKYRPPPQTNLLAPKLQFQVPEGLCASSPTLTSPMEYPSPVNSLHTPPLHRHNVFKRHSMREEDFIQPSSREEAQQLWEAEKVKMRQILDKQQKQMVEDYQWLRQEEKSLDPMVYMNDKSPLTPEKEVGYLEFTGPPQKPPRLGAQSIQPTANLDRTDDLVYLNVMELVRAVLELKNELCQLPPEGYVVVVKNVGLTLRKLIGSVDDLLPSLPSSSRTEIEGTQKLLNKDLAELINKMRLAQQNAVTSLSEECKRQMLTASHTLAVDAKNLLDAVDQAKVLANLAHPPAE

Row | Structure (SMILES) | Activity [1] | Activity [2] | Activity [3] | Activity [4] | Activity [5] | Activity [6]
1 | C[C@H](Nc1ncnc2nc[nH]c12)c1cc2cccc(Cl)c2c(=O)n1-c1ccccc1 | 87.9% | 93.2% | 96.7% | 95.9% | 99.5% | 93.2%
2 | CC[C@H](Nc1ncnc2[nH]cnc12)c1nc2cccc(F)c2c(=O)n1-c1ccccc1 | 93.8% | 88.8% | 97% | 93.9% | 101% | 89.3%
3 | CC(C)Oc1ccc(-c2nn([C@@H](C)c3oc4ccc(F)cc4c(=O)c3-c3cccc(F)c3)c3ncnc(N)c23)cc1F [UMBRALISIB] | 85.9% | 94.3% | 98.6% | 96.4% | 102% | 93.8%
